What was measured:
Format in all cases: in vivo
Oryza sativa (ORYSA) = experiment: Post-emergence crop plant compatibility, greenhouse pot test (also comparative test C); conditions: for Post-emergence action against ORYSA (crop plant compatibility): vs untreated controls; for Post-emergence action against ORYSA in %: 20 g/ha, crop plant compatibility
Protocol: (§1) Seeds of monocotyledonous and dicotyledonous weeds and crop plants were placed in sandy loam in plastic or wood-fiber pots, covered with soil and cultivated in a greenhouse under controlled growth conditions. 2 to 3 weeks after sowing, the test plants were treated at the one-leaf stage. The compounds of the invention, formulated in the form of wettable powders (WP) or as emulsion concentrates (EC), were then sprayed onto the green parts of the plants as aqueous suspension or emulsion with addition of 0.5% additive at a water application rate of 600 l/ha (converted). After the test plants had been kept in the greenhouse under optimum growth conditions for about 3 weeks, the activity of the preparations was rated visually in comparison to untreated controls. For example, 100% activity=the plants have died, 0% activity=like control plants.
(§2) The observed effects on selected crop plants are reported here in comparison to the untreated controls (values in %). The appendices “a”, “b” and “c” give differentiation by different dosage with otherwise the same crop plants tested.
(§3) C. Comparative Herbicidal Action and Crop Plant Compatibility of Two Inventive Compounds (I.7-1 and I.7-115) with a Compound of Similar Structure Known from the Literature (WO2002/098227, a-17 and EP1106607, 3-14) in Post-Emergence Treatment.

[1] = tested on: Echinochloa crus-galli (ECHCG); experiment: Post-emergence herbicidal action, greenhouse pot test (also comparative test C)
Protocol: as §1
(§4) Tables A1 to A14 below show the effects of selected compounds of the general formula (I) according to Tables I.1 to I.33 on various harmful plants and at an application rate corresponding to 20 g/ha and less, which were obtained by the experimental method specified above. The appendices “a”, “b” and “c” give differentiation by different dosage with otherwise the same harmful plants tested.
as §3
(§5) Tables C1-C4 below show the effects of two inventive compounds (I.7-1 and I.7-115) together with a compound of similar structure known from the literature (a-17 in WO2002/098227, and 3-14 in EP1106607) in different crop plants at an application rate corresponding to 5 g/ha or less, which have been obtained by the aforementioned experimental procedure.

Setaria viridis (SETVI) = experiment: as above; conditions: for Post-emergence action against SETVI: 20 g/ha
Protocol: as §1, §4, §3, §5

[2] = tested on: Matricaria inodora (MATIN); experiment: as above
Protocol: as §1, §4, §3, §5

[3] = tested on: Alopecurus myosuroides (ALOMY); experiment: as above; conditions: 20 g/ha, rated visually after about 3 weeks vs untreated controls, 100% = plants have died
Protocol: as §1, §4, §3, §5

Viola tricolor (VIOTR) = experiment: Post-emergence herbicidal action, greenhouse pot test
Protocol: as §1, §4

[4] = tested on: Abutilon theophrasti (ABUTH); experiment: as above; conditions: rated visually after about 3 weeks vs untreated controls, 100% = plants have died
Protocol: as §1, §4

[5] = tested on: Pharbitis purpurea (PHBPU); experiment: as above
Protocol: as §1, §4

[6] = tested on: Amaranthus retroflexus (AMARE); experiment: as above; conditions: rated visually after about 3 weeks vs untreated controls, 100% = plants have died
Protocol: as §1, §4

Veronica persica (VERPE) = experiment: as above
Protocol: as §1, §4

[7] = tested on: Polygonum convolvulus (POLCO); experiment: as above; conditions: dosage 20 g/ha
Protocol: as §1, §4

[8] = tested on: Triticum aestivum (TRZAS); experiment: Post-emergence crop plant compatibility, greenhouse pot test; conditions: vs untreated controls
Protocol: as §1, §2

Zea mays (ZEAMX) = experiment: as above; conditions: vs untreated controls
Protocol: as §1, §2

SMILES	Post-emergence action against ORYSA (crop plant compatibility) (Oryza sativa (ORYSA); 1.25 g/ha)	Post-emergence action against ORYSA (crop plant compatibility) (Oryza sativa (ORYSA); 5 g/ha)	Post-emergence action against ORYSA in % (Oryza sativa (ORYSA))	Post-emergence action against ECHCG in % ([1]; dosage 20 g/ha)	Post-emergence action against SETVI (Setaria viridis (SETVI))	Post-emergence action against SETVI in % (Setaria viridis (SETVI); dosage 5 g/ha)	Post-emergence action against MATIN in % ([2]; dosage 5 g/ha)	Post-emergence action against MATIN in % ([2]; dosage 20 g/ha)	Post-emergence action at 20 g/ha against ALOMY in % [3]	Post-emergence action against VIOTR (Viola tricolor (VIOTR); 1.25 g/ha)	Post-emergence action against VIOTR (Viola tricolor (VIOTR); 5 g/ha)	Post-emergence action against VIOTR (Viola tricolor (VIOTR); 20 g/ha)	Post-emergence action at 5 g/ha against ABUTH in % [4]	Post-emergence action at 20 g/ha against ABUTH in % [4]	Post-emergence action against PHBPU in % ([5]; dosage 5 g/ha)	Post-emergence action against PHBPU in % ([5]; dosage 20 g/ha)	Post-emergence action at 1.25 g/ha against AMARE in % [6]	Post-emergence action at 5 g/ha against AMARE in % [6]	Post-emergence action at 20 g/ha against AMARE in % [6]	Post-emergence action against VERPE (Veronica persica (VERPE); 5 g/ha)	further results
Cn1c(C(F)(F)F)cc(=O)n(-c2cc(Oc3ccccc3OCC(=O)OCC[N+](=O)[O-])c([N+](=O)[O-])cc2F)c1=O [I.6-183]	0%	0%	0%	80%	100%	100%	80%	100%	90%	90%	100%	100%	100%	100%	100%	100%	100%	100%	100%	100%	Post-emergence action against PHBPU in % ([5]; dosage 1.25 g/ha): 100%; Post-emergence action against VERPE (Veronica persica (VERPE); 20 g/ha): 100%; Post-emergence action against POLCO in % [7]: 100%; Post-emergence action against TRZAS (crop plant compatibility) ([8]; 1.25 g/ha): 0%; Post-emergence action against TRZAS (crop plant compatibility) ([8]; 5 g/ha): 20%; Post-emergence action against ZEAMX (crop plant compatibility) (Zea mays (ZEAMX); 1.25 g/ha): 20%; Post-emergence action against ZEAMX (crop plant compatibility) (Zea mays (ZEAMX); 5 g/ha): 20%
Cn1c(C(F)(F)F)cc(=O)n(-c2cc(Oc3ccccc3OCC(=O)OCc3cccnc3)c(Cl)cc2F)c1=O [I.7-277]	0%	0%	20%	100%	100%	100%	80%	100%	100%	80%	100%	100%	100%	100%	100%	100%	100%	100%	100%	100%	Post-emergence action against ECHCG in % ([1]; dosage 5 g/ha): 100%; Post-emergence action against SETVI in % (Setaria viridis (SETVI); dosage 1.25 g/ha): 100%; Post-emergence action at 1.25 g/ha against ABUTH in % ([4]; 1.25 g/ha): 90%; Post-emergence action against VERPE (Veronica persica (VERPE); 1.25 g/ha): 100%; Post-emergence action against VERPE (Veronica persica (VERPE); 20 g/ha): 100%; Post-emergence action against POLCO in % [7]: 100%; Post-emergence action against TRZAS (crop plant compatibility) ([8]; 1.25 g/ha): 0%; Post-emergence action against TRZAS (crop plant compatibility) ([8]; 5 g/ha): 20%; Post-emergence action against ZEAMX (crop plant compatibility) (Zea mays (ZEAMX); 1.25 g/ha): 0%
